Consider 17 molecules from PubChem BioAssay (NCI).

Experiment in all cases: inhibition of tumour cell growth, NCI panel, 48 h
In assay [1] the test system is UACC-62 melanoma.
Assay [2] concerns NCI-H226 lung.
Assay [3] relates to A549 NSCLC.
Assay [4] deals with HCT-15 colon.
Assay [5] deals with UACC-257 melanoma.
The test system of assay [6] is IGROV1 ovarian.
In assay [7] the test system is CCRF-CEM leukemia.
The test system of assay [8] is K-562 leukemia.
In assay [9] the test system is 786-0 renal.
Assay [10] concerns M14 melanoma.
Assay [11] relates to BT-549 breast.
Assay [12] concerns RXF 393 renal.
Assay [13] concerns NCI-H23 lung.
Assay [14] deals with OVCAR-4 ovarian.
For assay [15], the system named is ACHN renal.
Assay [16] has as its system UO-31 renal.
In assay [17] the test system is MCF7 breast.
The subject of assay [18] is CAKI-1 renal.

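Assay format: 96-well plates, 48-hour exposure. GI50: concentration for 50% inhibition of growth. At the TGI there is no net growth.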

`COc1cc2c[n+](C)c3c4cc5c(cc4ccc3c2cc1OC)OCO5`: the TGI was 4.92 µM in assay [1]; 15.3 µM in [2]; 0.756 µM in [3]; more than 100 µM in assay [4]; more than 59.8 µM in assay [5]; 3.9 µM in assay [6]. The TGI is 19.5 µM in assay [7]; 32.2 µM in assay [8]; 21.7 µM in assay [9]; more than 88.1 µM in assay [10]; 78.4 µM in assay [11]; 49.7 µM in [12]. The TGI was 3.65 µM in assay [13], more than 52.4 µM in assay [14], more than 100 µM in [15] and more than 100 µM in assay [16].
Regarding `COc1cc(S(=O)(=O)Nc2nc(-c3ccc(N4C(=O)C(CC(=O)O)SC4c4ccccc4O)cc3)cs2)ccc1Cl` (configuration not stated), the TGI in assay [1], in assay [2], in assay [3], in [4], in [5] and in assay [6] was more than 100 µM throughout. Also, the TGI is more than 100 µM in assay [8]; more than 100 µM in assay [9]; more than 100 µM in [10]; more than 100 µM in [12]; 86.7 µM in assay [13]; more than 100 µM in assay [14]. Further, the TGI in assay [15], in assay [17], in assay [16] and in assay [18] was more than 100 µM in each case.
Turning to `COCC(N=CN1CCCc2ccccc2[C@@H]1CCCCl)C(C)(C)C` (some centres not stated), the TGI in assay [1] was 32.1 µM; in assay [2], 23.9 µM; in assay [3], 66.3 µM; in [4] it was more than 100 µM; in assay [5] it was 7.68 µM; in assay [6] it was 14.2 µM. The TGI in assay [7] was more than 100 µM; in assay [8], 14.2 µM; in assay [9] it was 28.1 µM; in [10], 18.3 µM; in assay [12] it was 32.5 µM; in [13], 21.1 µM. For the same molecule, the TGI in [14] is 36 µM; in assay [15], 70 µM; in [17] it was 4.28 µM; in assay [16], 33.2 µM; in assay [18], 31.9 µM.
As for `COc1ccc2nc3c([N+](=O)[O-])ccc4c3c(c2c1)N=CN4CCCN(C)C`, the TGI in assay [1] is 28.1 µM; in assay [2], 24.9 µM; in assay [3] it was 13.4 µM; in [4] it was 15.2 µM; in [5], 17.2 µM; in [6], 6.16 µM. Moreover, the TGI in assay [7] was 3.18 µM; in [8], 2.19 µM; in [9], 14.3 µM; in assay [10], 23.6 µM; in assay [11], 23.5 µM; in assay [13], 18.7 µM. Further, the TGI in [15] turned out to be 15.3 µM; in assay [17] it was 11.6 µM; in [16], 10.7 µM; in assay [18], 7.26 µM.
For `CCOC(=O)CCC(NC(=O)c1ccc(CNc2nc3ccccc3nc2C(=O)OCC)cc1)C(=O)OCC` (configuration not stated), the TGI in assay [1], in assay [2], in assay [3], in assay [4], in [6] and in [7] was more than 100 µM throughout. The TGI in assay [8], in assay [9], in assay [10], in assay [13], in [15] and in [17] was more than 100 µM throughout. Also, the TGI in assay [16] is more than 100 µM.
With `CC12CCC3[C@@H](CC3(C)C)C(O)(CCC1=O)C2` (some centres not stated), the TGI in assay [1], in assay [2], in assay [3], in [4], in assay [5] and in [6] was more than 100 µM each time. Also, the TGI in assay [7], in assay [8], in [9], in assay [10], in assay [13] and in assay [14] was more than 100 µM each time. The TGI in assay [15], in assay [17], in assay [16] and in assay [18] was more than 100 µM throughout.
On to `O=[n+]1c2ccccc2n([O-])c2ccccc21`, for which the TGI in assay [1], in assay [2], in assay [3], in assay [4], in [5] and in [6] was more than 100 µM each time. Moreover, the TGI in [7], in [8], in assay [9], in assay [10], in assay [13] and in assay [14] was more than 100 µM each time. Besides, the TGI in [15], in assay [17], in assay [16] and in assay [18] was more than 100 µM throughout.
With `CC(=O)Oc1cc2c(n(C)c1=O)-c1ccccc1C2`, the TGI in assay [1], in assay [2], in assay [3], in assay [4], in assay [5] and in assay [6] was more than 100 µM each time. The TGI in assay [7], in assay [8], in assay [9], in assay [10], in assay [11] and in assay [12] was more than 100 µM throughout. Further, the TGI is more than 100 µM in [13]; more than 100 µM in [14]; more than 100 µM in assay [15]; more than 100 µM in [16]; 78 µM in assay [18].
`COC1CC(C)C(OC)C2=CC(=O)C=C(NC(=O)/C(C)=C/C=C\C(C)C(OC(N)=O)/C(C)=C\C(C)C1OC)C2=O` (configuration not stated): the TGI in assay [1] was 14.8 µM; in assay [2], 22.4 µM; in assay [3], 31.4 µM; in assay [4], 3.31 µM; in assay [5], 1.8 µM; in assay [6], 17.8 µM. Further, the TGI in assay [7] was determined as 1.05 µM; in [8], 1.19 µM; in assay [9] it was 2.87 µM; in assay [10], 12.2 µM; in assay [12], 1.68 µM; in assay [13] it was 13.8 µM. Also, the TGI worked out at 2.48 µM in [14], 3.97 µM in assay [15], 10.8 µM in [16] and 6.6 µM in assay [18]. Moreover, the values for the GI50 in assay [7] and in assay [8] were 0.0706 µM and 0.047 µM, respectively.
Take `COc1cc(OCc2ccc3nc(-c4ccccc4)c(Cl)nc3c2)cc(OC)c1OC`: the TGI in [1], in assay [3], in assay [4], in assay [5], in assay [6] and in assay [7] was more than 100 µM in each case. The TGI in [9], in assay [10], in assay [13], in assay [14], in assay [15] and in assay [17] was more than 100 µM each time. Moreover, the TGI in assay [16] and in assay [18] was more than 100 µM in each case.
As for `COc1cc(S(=O)(=O)Nc2nc(-c3ccc(N4C(=O)CSC4c4cccs4)cc3)cs2)ccc1Cl` (configuration not stated), the TGI in assay [1] was more than 100 µM; in assay [2], more than 100 µM; in assay [3], more than 100 µM; in [4], 46.7 µM; in [5] it was more than 100 µM; in assay [6], more than 100 µM. Further, the TGI was more than 100 µM in assay [7]; more than 100 µM in [8]; more than 100 µM in assay [9]; more than 100 µM in assay [10]; 55.9 µM in assay [12]; 89 µM in assay [13]. In addition, the TGI was 97.7 µM in [14]; more than 100 µM in [15]; more than 100 µM in assay [17]; 73.4 µM in [16]; more than 100 µM in [18].
As for `Cc1oc2c(c1C)S(=O)(=O)C(C#N)=C(c1ccccc1)N2`, the TGI in assay [1], in [2], in assay [3], in [4], in assay [5] and in assay [6] was more than 100 µM throughout. Also, the TGI in assay [8], in assay [9], in assay [10], in assay [11], in assay [13] and in [14] was more than 100 µM in each case. In addition, the TGI in [15], in [17], in assay [16] and in assay [18] was more than 100 µM throughout.
As for `Ic1ncnc2c1ncn2C1CCCO1` (configuration not stated), the TGI in assay [1], in assay [2], in assay [3], in [4], in assay [5] and in assay [6] was more than 100 µM each time. In addition, the TGI in assay [7], in assay [8], in assay [9], in [10], in [13] and in assay [14] was more than 100 µM throughout. Moreover, the TGI in assay [15], in assay [16] and in assay [18] was more than 100 µM throughout.
Take `OC1(CCc2ccccc2)COC(C(F)(F)F)(C(F)(F)F)C1` (configuration not stated): the TGI in assay [1], in assay [2], in [3], in assay [4], in [6] and in assay [7] was more than 100 µM throughout. Moreover, the TGI in [8], in assay [9], in assay [10], in assay [12], in assay [13] and in [14] was more than 100 µM in each case. Also, the TGI in assay [15], in assay [17], in assay [16] and in assay [18] was more than 100 µM in each case.
As for `COC(=O)C(C)NP(=O)(N1CC1)N1CC1` (configuration not stated), the TGI in assay [1], in assay [3], in assay [4], in [5], in [6] and in [7] was more than 100 µM each time. In addition, the TGI in assay [8], in [10], in assay [12], in assay [13], in assay [14] and in assay [15] was more than 100 µM each time. In addition, the TGI in [16] and in [18] was more than 100 µM throughout.
`Nc1nc(N)c2cc(Sc3ccc4nc(N)nc(N)c4c3)ccc2n1`: the TGI was more than 100 µM in assay [2]; more than 100 µM in [3]; more than 100 µM in [4]; more than 100 µM in assay [5]; more than 100 µM in assay [6]; 0.0104 µM in assay [7]. Also, the TGI in assay [8], in [10], in [11], in assay [12], in assay [14] and in assay [15] was more than 100 µM each time. The TGI in assay [16] and in assay [18] was more than 100 µM in each case.
For `CN1C2CCC1CC(CCOC(c1ccc(F)cc1)c1ccc(F)cc1)C2` (configuration not stated), the TGI in assay [2] came to 29.1 µM; in assay [3], 35.7 µM; in assay [4], 32.3 µM; in [5], 34.1 µM; in [6], 32.1 µM; in [7] it was 46.1 µM. For the same molecule, the TGI in [8] is 35.8 µM; in [9], 30.7 µM; in assay [10], 32.5 µM; in assay [11] it was 31.1 µM; in [12], 22.6 µM; in assay [13] it was 42.1 µM. Moreover, the TGI in assay [14] was 38.8 µM; in assay [15], 30.8 µM; in [16], 27.9 µM; in assay [18], 32.6 µM.
